Data taken from patent US11566007B2, “Ras inhibitors” (Revolution Medicines, Inc., priority 2019, dated 2023).
Like-named read-outs stand apart in the source and are kept apart here.

What was measured:
KRAS G12D = KRAS G12D (Homo sapiens (Human), UniProt P01116+P62937, G12D); assay: Ras-Raf (BRAF RBD) disruption / FRET / MOA assay, KRAS G12D; format: biochemical; conditions: Ras-Raf disruption/FRET/MOA assay; class symbols; read-out: KRAS G12D FRET data IC50
Outline: (§1)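 A 10-point, 3-fold dilution series topping at 30 μM final was incubated 3 h at 25° C with the Ras/cyclophilin A/BRAF RBD mixture.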

NCI-H358 (K-Ras G12C) = assay: CellTiter-Glo cell viability assay, NCI-H358; format: cell-based, human; conditions: NCI-H358, 5-day treatment, class symbols, read-out: Additional H358 Cell Viability assay data (K-Ras G12C, IC50)
Outline: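 Compounds were dispensed directly onto K-Ras mutant cells and incubated until day 5, then plates were equilibrated to room temperature for about 30 minutes before CellTiter-Glo luminescence. Signals were normalized as (sample/average DMSO)*100 and fitted by four-parameter logistic fit.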

K-Ras G13C = K-Ras G13C (Homo sapiens (Human), UniProt P01116+P62937, G13C); assay: Ras-Raf (BRAF RBD) disruption / FRET / MOA assay, KRAS G13C; format: biochemical; conditions: KRAS G13C; Ras-Raf disruption/FRET/MOA assay; read-out: IC50* KRAS G13C FRET data
Chain of K-Ras G13C (P01116-2 other isoform, or with tags, fused parts or gaps G13C): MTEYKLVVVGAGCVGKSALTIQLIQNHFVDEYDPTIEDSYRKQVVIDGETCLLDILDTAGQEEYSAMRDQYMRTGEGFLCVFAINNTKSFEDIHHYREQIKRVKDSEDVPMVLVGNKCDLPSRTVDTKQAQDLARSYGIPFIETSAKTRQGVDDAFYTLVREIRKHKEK
Chain of K-Ras G13C (P62937 whole entry): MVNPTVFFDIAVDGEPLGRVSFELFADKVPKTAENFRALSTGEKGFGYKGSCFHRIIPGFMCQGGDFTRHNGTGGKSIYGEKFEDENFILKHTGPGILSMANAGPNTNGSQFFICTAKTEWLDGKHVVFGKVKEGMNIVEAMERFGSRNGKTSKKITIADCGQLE
Outline: as §1

KRAS G13D = KRAS G13D (Homo sapiens (Human), UniProt P01116+P62937, G13D); assay: Ras-Raf (BRAF RBD) disruption / FRET / MOA assay, KRAS G13D; format: biochemical; conditions: read-out: IC50* KRAS G13D FRET data
Chain of KRAS G13D (P01116-2 other isoform, or with tags, fused parts or gaps G13D): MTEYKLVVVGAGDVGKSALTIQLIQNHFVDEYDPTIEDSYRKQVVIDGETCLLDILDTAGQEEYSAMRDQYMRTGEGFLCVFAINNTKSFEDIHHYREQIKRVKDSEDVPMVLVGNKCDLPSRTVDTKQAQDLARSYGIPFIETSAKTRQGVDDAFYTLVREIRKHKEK
Chain of KRAS G13D (P62937 whole entry): as the sequence (P62937 whole entry) above
Outline: as §1

[1] = system: NCI-H358 cells (K-Ras G12C); assay: Potency assay: pERK in NCI-H358 cells; format: cell-based, human; conditions: Homo sapiens, NCI-H358; H358 KRAS G12C; read-out: pERK EC50
Outline: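 Inhibition of cellular pERK after a 4 h treatment, detected by AlphaLISA or In-Cell Western. IC50 from a four-parameter concentration-response fit.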

KRAS WT = KRAS WT (Homo sapiens (Human), UniProt P01116+P62937); assay: Ras-Raf (BRAF RBD) disruption / FRET / MOA assay, KRAS WT; format: biochemical; conditions: read-out: IC50* KRAS WT FRET data
Chain of KRAS WT (P01116-2 other isoform, or with tags, fused parts or gaps): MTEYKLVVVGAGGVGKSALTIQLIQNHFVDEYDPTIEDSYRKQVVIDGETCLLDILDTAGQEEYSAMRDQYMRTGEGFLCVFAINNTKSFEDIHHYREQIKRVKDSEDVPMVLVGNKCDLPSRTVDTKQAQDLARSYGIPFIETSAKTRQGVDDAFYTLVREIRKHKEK
Chain of KRAS WT (P62937 whole entry): as the sequence (P62937 whole entry) above
Outline: as §1

KRAS G12S = KRAS G12S (Homo sapiens (Human), UniProt P01116+P62937, G12S); assay: Ras-Raf (BRAF RBD) disruption / FRET / MOA assay, KRAS G12S; format: biochemical; conditions: Ras-Raf disruption/FRET/MOA assay; class symbols; read-out: KRAS G12S FRET data IC50
Chain of KRAS G12S (P01116-2 other isoform, or with tags, fused parts or gaps G12S): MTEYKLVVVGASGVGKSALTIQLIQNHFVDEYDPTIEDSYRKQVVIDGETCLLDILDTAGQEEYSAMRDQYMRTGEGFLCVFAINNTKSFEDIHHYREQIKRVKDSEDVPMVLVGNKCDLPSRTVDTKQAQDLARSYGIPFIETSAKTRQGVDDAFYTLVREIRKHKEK
Chain of KRAS G12S (P62937 whole entry): as the sequence (P62937 whole entry) above
Outline: as §1

K-Ras G12C = K-Ras G12C (Homo sapiens (Human), UniProt P01116+P62937, G12C); assay: Ras-Raf (BRAF RBD) disruption / FRET / MOA assay, KRAS G12C; format: biochemical; conditions: KRAS G12C; Ras-Raf disruption/FRET/MOA assay; read-out: IC50* KRAS G12C FRET data
Chain of K-Ras G12C (P01116-2 other isoform, or with tags, fused parts or gaps G12C): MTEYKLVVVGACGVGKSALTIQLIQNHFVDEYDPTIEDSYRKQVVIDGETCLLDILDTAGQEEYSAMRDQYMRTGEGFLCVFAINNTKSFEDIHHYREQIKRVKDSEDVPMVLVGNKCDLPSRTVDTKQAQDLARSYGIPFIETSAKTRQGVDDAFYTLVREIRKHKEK
Chain of K-Ras G12C (P62937 whole entry): as the sequence (P62937 whole entry) above
Outline: as §1

NRAS G12C = NRAS G12C (Homo sapiens (Human), UniProt P01111+P62937, G12C); assay: Ras-Raf (BRAF RBD) disruption / FRET / MOA assay, NRAS G12C; format: biochemical; conditions: read-out: IC50* NRAS G12C FRET data
Chain of NRAS G12C (P01111 whole entry G12C): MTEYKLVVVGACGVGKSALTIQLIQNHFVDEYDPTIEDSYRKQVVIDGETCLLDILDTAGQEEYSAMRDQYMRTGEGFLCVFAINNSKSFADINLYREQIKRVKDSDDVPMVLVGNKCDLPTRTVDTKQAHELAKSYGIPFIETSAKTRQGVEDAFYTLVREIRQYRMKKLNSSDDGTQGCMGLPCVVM
Chain of NRAS G12C (P62937 whole entry): as the sequence (P62937 whole entry) above
Outline: as §1

KRAS G12V = KRAS G12V (Homo sapiens (Human), UniProt P01116+P62937, G12V); assay: Ras-Raf (BRAF RBD) disruption / FRET / MOA assay, KRAS G12V; format: biochemical; conditions: read-out: IC50* KRAS G12V FRET data
Chain of KRAS G12V (P01116-2 other isoform, or with tags, fused parts or gaps G12V): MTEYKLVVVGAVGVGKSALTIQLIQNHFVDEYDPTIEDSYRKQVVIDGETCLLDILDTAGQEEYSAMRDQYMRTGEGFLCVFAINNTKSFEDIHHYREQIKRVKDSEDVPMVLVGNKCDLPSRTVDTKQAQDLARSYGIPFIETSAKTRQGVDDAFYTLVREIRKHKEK
Chain of KRAS G12V (P62937 whole entry): as the sequence (P62937 whole entry) above
Outline: as §1

Chain of KRAS G12D (P01116-2 other isoform, or with tags, fused parts or gaps G12D): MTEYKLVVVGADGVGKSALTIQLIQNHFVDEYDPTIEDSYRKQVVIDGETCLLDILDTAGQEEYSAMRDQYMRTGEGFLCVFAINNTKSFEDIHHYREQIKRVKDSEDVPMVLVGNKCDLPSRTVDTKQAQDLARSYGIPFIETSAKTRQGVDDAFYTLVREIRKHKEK
Chain of KRAS G12D (P62937 whole entry): as the sequence (P62937 whole entry) above

| Structure (SMILES) | IC50 (KRAS G12D) [nM] | IC50 (NCI-H358 (K-Ras G12C); Homo sapiens, NCI-H358, 120 h) [nM] | IC50 (K-Ras G13C) [nM] | IC50 (KRAS G13D) [nM] | EC50 [1] [nM] | IC50 (KRAS WT) [nM] | IC50 (KRAS G12S) [nM] | IC50 (K-Ras G12C) [nM] | IC50 (NRAS G12C) [nM] | IC50 (KRAS G12V) [nM] | IC50 (NCI-H358 (K-Ras G12C)) [nM] |
| --- | --- | --- | --- | --- | --- | --- | --- | --- | --- | --- | --- |
| C=CC(=O)N(C)CC(=O)N(C)[C@H](C(=O)N[C@H]1Cc2cc(O)cc(c2)-c2ccc3c(c2)c(c(-c2cccnc2COC)n3CC)CC(C)(C)COC(=O)[C@@H]2CCCN(N2)C1=O)C(C)C [Example A147] | 1000 to 10000 | 10 to 100 | 100 to 1000 | 1000 to 10000 | < 5000 | 100 to 1000 | 100 to 1000 | 100 to 1000 | 100 to 1000 | 100 to 1000 | – |
| C#CC(=O)N1CC[C@H](C(=O)N(C)[C@H](C(=O)N[C@H]2Cc3cc(O)cc(c3)-c3ccc4c(c3)c(c(-c3cnccc3[C@H](C)OC)n4CC)CC(C)(C)COC(=O)[C@@H]3CCCN(N3)C2=O)C(C)C)C1 [Example A150] | 1000 to 10000 | < 10 | 10 to 100 | 100 to 1000 | < 5000 | 100 to 1000 | 100 to 1000 | 10 to 100 | 10 to 100 | 100 to 1000 | – |
| CCn1c(-c2cccnc2)c2c3cc(ccc31)-c1cccc(c1)C[C@H](NC(=O)[C@H](C(C)C)N(C)C(=O)[C@H]1CCN(C(=O)C#CCN(C)C)C1)C(=O)N1CCC[C@H](N1)C(=O)OCC(C)(C)C2 [Example A152] | 1000 to 10000 | 10 to 100 | 1000 to 10000 | 1000 to 10000 | < 5000 | 1000 to 10000 | > 10000 | 10 to 100 | 10 to 100 | 1000 to 10000 | – |
| CCn1c(-c2cnccc2COC)c2c3cc(ccc31)-c1cc(O)cc(c1)C[C@H](NC(=O)[C@H](C(C)C)N(C)C(=O)[C@H]1CCN(C(=O)C(C)(C)N(C)C)C1)C(=O)N1CCC[C@H](N1)C(=O)OCC(C)(C)C2 [Example A153] | 100 to 1000 | 100 to 1000 | 100 to 1000 | 100 to 1000 | < 5000 | 100 to 1000 | 100 to 1000 | 10 to 100 | 10 to 100 | 100 to 1000 | – |
| C=CC(=O)N1CC[C@H](C(=O)N(C)[C@H](C(=O)N[C@H]2Cc3cc(O)cc(c3)-c3ccc4c(c3)c(c(-c3cn(C)nc3[C@H](C)OC)n4CC)CC(C)(C)COC(=O)[C@@H]3CCCN(N3)C2=O)C(C)C)C1 [Example A154] | 1000 to 10000 | 10 to 100 | 1000 to 10000 | 1000 to 10000 | < 5000 | 1000 to 10000 | 100 to 1000 | 10 to 100 | 10 to 100 | 100 to 1000 | – |
| CCn1c(-c2cccnc2COC)c2c3cc(ccc31)-c1cc(C)cc(c1)C[C@H](NC(=O)[C@H](C(C)C)N(C)C(=O)[C@H]1CCN(C(=O)C#CCN(C)C)C1)C(=O)N1CCC[C@H](N1)C(=O)OCC(C)(C)C2 [Example A156] | 1000 to 10000 | 10 to 100 | 1000 to 10000 | 1000 to 10000 | < 5000 | > 10000 | > 10000 | 10 to 100 | 100 to 1000 | > 10000 | – |
| C=CC(=O)N1C[C@@H](C(=O)N(C)[C@H](C(=O)N[C@H]2Cc3cc(O)cc(c3)-c3ccc4c(c3)c(c(-c3cccnc3COC)n4CC)CC(C)(C)COC(=O)[C@@H]3CCCN(N3)C2=O)C(C)C)C[C@H]1C [Example A158] | > 10000 | 10 to 100 | 100 to 1000 | 100 to 1000 | < 5000 | 100 to 1000 | 100 to 1000 | 10 to 100 | 10 to 100 | 1000 to 10000 | – |
| C=CC(=O)N1C[C@@H](C(=O)N(C)[C@@H](C(=O)N[C@H]2Cc3cc(O)cc(c3)-c3ccc4c(c3)c(c(-c3cccnc3COC)n4CC)CC(C)(C)COC(=O)[C@@H]3CCCN(N3)C2=O)C(C)C)C[C@H]1C [Example A159] | > 10000 | 100 to 1000 | > 10000 | 1000 to 10000 | < 5000 | 1000 to 10000 | 1000 to 10000 | 100 to 1000 | 100 to 1000 | 1000 to 10000 | – |
| CCn1c(-c2cccnc2COC)c2c3cc(ccc31)-c1cc(O)cc(c1)C[C@H](NC(=O)[C@H](C(C)C)N(C)C(=O)[C@@H]1CCN(C(=O)C#CC(C)(C)N(C)C)C1)C(=O)N1CCC[C@H](N1)C(=O)OCC(C)(C)C2 [Example A162] | 1000 to 10000 | < 10 | 100 to 1000 | 1000 to 10000 | < 5000 | 1000 to 10000 | 1000 to 10000 | < 10 | < 10 | 100 to 1000 | – |
| CCn1c(-c2cccnc2COC)c2c3cc(ccc31)-c1cc(O)cc(c1)C[C@H](NC(=O)[C@H](C(C)C)N(C)C(=O)[C@H]1CCC(C(=O)/C=C\CN(C)C)C1)C(=O)N1CCC[C@H](N1)C(=O)OCC(C)(C)C2 (stereo partly shown) [Example A164] | 1000 to 10000 | – | 100 to 1000 | 100 to 1000 | < 5000 | 100 to 1000 | 100 to 1000 | 10 to 100 | 10 to 100 | 100 to 1000 | 100 to 1000 |
| CCn1c(-c2cccnc2COC)c2c3cc(ccc31)-c1cc(O)cc(c1)C[C@H](NC(=O)[C@@H](C(C)C)N(C)C(=O)[C@H]1C[C@@H](C)N(C(=O)C#CCN(C)C)C1)C(=O)N1CCC[C@H](N1)C(=O)OCC(C)(C)C2 [Example A165] | > 10000 | 10 to 100 | 100 to 1000 | > 10000 | < 5000 | > 10000 | > 10000 | 10 to 100 | 10 to 100 | > 10000 | – |
| CC#CC(=O)N1CC[C@@H](C(=O)N(C)[C@H](C(=O)N[C@H]2Cc3cc(O)cc(c3)-c3ccc4c(c3)c(c(-c3cncnc3)n4CC)CC(C)(C)COC(=O)[C@@H]3CCCN(N3)C2=O)C(C)C)C1 [Example A169] | > 10000 | 100 to 1000 | 1000 to 10000 | > 10000 | < 5000 | 1000 to 10000 | 1000 to 10000 | 100 to 1000 | 100 to 1000 | 1000 to 10000 | – |
| CCn1c(-c2cccnc2COC)c2c3cc(ccc31)-c1cc(O)cc(c1)C[C@H](NC(=O)[C@H](C(C)C)N(C)C(=O)[C@H]1C[C@@H](C)N(C(=O)C#CCN(C)C)C1)C(=O)N1CCC[C@H](N1)C(=O)OCC(C)(C)C2 [Example A175] | 1000 to 10000 | < 10 | < 10 | 1000 to 10000 | < 5000 | 1000 to 10000 | 1000 to 10000 | < 10 | < 10 | 1000 to 10000 | – |
